Publication PMC12040169 (PLOS Biology, 2025)

Assay: in vitro
Settings: human, hela cells, % viability

First: COCCNC(=O)N(CCC#N)C1CCCCC1 [CBK156358]
Second: CC(C)CCNC(=O)N(CCC#N)C1CCCCC1 [CBK156378]
The viability at 28.5 h, 10 µM of the first is higher: 97.3% for the first, 91.6% for the second.

Compared with COc1ccc(CCNC(=O)N(CCC#N)C2CCCCC2)cc1OC [CBK156363], N#CCCN(C(=O)NCc1ccc(F)cc1)C1CCCCC1 [CBK156372] is lower in viability at 28.5 h, 10 µM: 108% for the first, 86.5% for the second.

First: N#CCCN(C(=O)Nc1ccc2c(c1)OCCO2)C1CCCCC1 [CBK156364]
Second: N#CCCN(C(=O)Nc1ccc(Cl)cc1)C1CCCCC1 [CBK156365]
The viability at 28.5 h, 10 µM of the first is higher: 92.3% for the first, 89.1% for the second.

Compared with N#CCCN(C(=O)NCCCN1CCCC1=O)C1CCCCC1 [CBK156379], CCOC(=O)N1CCC(NC(=O)N(CCC#N)C2CCCCC2)CC1 [CBK156384] is higher in viability at 28.5 h, 10 µM: 85.5% for the first, 90.9% for the second.

Going from O=C(NCc1cccc(C(F)(F)F)c1)N1CCN(c2ccc(F)cc2)CC1 [CBK156390] to Cc1cnc(CNC(=O)N2CCN(c3ccc(F)cc3)CC2)cn1 [CBK156392], the viability at 28.5 h, 10 µM rises from 89.4% to 93.7%.

First: O=C(NCCc1c[nH]cn1)N1CCN(c2ccc(F)cc2)CC1 [CBK156394]
Second: O=C(Nc1cccnc1)N1CCN(c2ccc(F)cc2)CC1 [CBK156427]
The viability at 28.5 h, 10 µM of the first is lower: 85.1% for the first, 92.7% for the second.

Going from CCOC(=O)N1CCC(NC(=O)N2CCN(c3ccc(F)cc3)CC2)CC1 [CBK156429] to CC(=O)Nc1ccc(-c2ccc(C(=O)N3CCN(C4CCN(C)CC4)CC3)cn2)cc1 [CBK158824], the viability at 28.5 h, 10 µM falls from 106% to 96.7%.

First: CN1CCN(CCCNC(=O)N2CCN(c3cc(C(F)(F)F)ccn3)CC2)CC1 [CBK156431]
Second: O=C(NCc1ccc(Cl)c(Cl)c1)N1CCN(c2cc(C(F)(F)F)ccn2)CC1 [CBK156434]
The viability at 28.5 h, 10 µM of the first is lower: 93.7% for the first, 94.3% for the second.

First: O=C(NCC1COc2ccccc2O1)N1CCN(c2cc(C(F)(F)F)ccn2)CC1 (stereo not drawn) [CBK156432]
Second: CC(=O)Nc1ccc(-c2ccc(C(=O)NCC3COc4ccccc4O3)cn2)cc1 (stereo not drawn) [CBK158832]
The viability at 28.5 h, 10 µM of the first is lower: 88.2% for the first, 99.3% for the second.

Going from O=C1CC2(CCN(C(=O)c3ccncc3)CC2)Oc2c(Br)cc(Br)cc21 [CBK156437] to Cc1noc(C)c1C(=O)N1CCC2(CC1)CC(=O)c1cc(Br)ccc1O2 [CBK156508], the viability at 28.5 h, 10 µM falls from 95.7% to 90%.

First: COc1ccc2c(c1)C(=O)CC1(CCN(C(=O)/C=C/c3ccc(C)cc3)CC1)O2 [CBK156438]
Second: Cc1ccc(/C=C/C(=O)N2CCC3(CC2)CC(=O)c2cc(Cl)ccc2O3)cc1 [CBK156439]
The viability at 28.5 h, 10 µM of the first is higher: 98.3% for the first, 95.1% for the second.

Compared with Cc1c(OCc2ccccc2)ccc2c1OC1(CCN(C(=O)c3ccccn3)CC1)CC2=O [CBK156441], Cc1c(OCc2ccccc2)ccc2c1OC1(CCN(C(=O)c3ccsc3)CC1)CC2=O [CBK156445] is higher in viability at 28.5 h, 10 µM: 106% for the first, 109% for the second.

First: O=C1CC2(CCN(C(=O)c3ccoc3)CC2)Oc2ccc3ccccc3c21 [CBK156444]
Second: CC(=O)c1ccc(C(=O)N2CCC3(CC2)CC(=O)c2ccc4ccccc4c2O3)cc1 [CBK156458]
The viability at 28.5 h, 10 µM of the first is lower: 91% for the first, 104% for the second.

Going from O=C1CC2(CCN(C(=O)c3ccccc3F)CC2)Oc2c(Cl)cc(Cl)cc21 [CBK156453] to Cc1ccc(NC(=O)CCC(=O)N2CCC3(CC2)CC(=O)c2ccccc2O3)cc1 [CBK156524], the viability at 28.5 h, 10 µM rises from 91.8% to 94.1%.

Compared with COc1cc(OC)c2c(c1)OC1(CCN(C(=O)C3CCCO3)CC1)CC2=O (stereo not drawn) [CBK156476], COc1cc(OC)c2c(c1)OC1(CCN(C(=O)c3cnc(C)cn3)CC1)CC2=O [CBK156503] is higher in viability at 28.5 h, 10 µM: 93.3% for the first, 105% for the second.

First: CC(=O)CCCCC(=O)N1CCC2(CC1)CC(=O)c1cc(C)c(C)cc1O2 [CBK156497]
Second: Cc1cc2c(cc1Cl)C(=O)CC1(CCN(C(=O)C3CC(=O)OC3(C)C)CC1)O2 (stereo not drawn) [CBK156514]
The viability at 28.5 h, 10 µM of the first is higher: 106% for the first, 94.8% for the second.

Compared with CN1CCC2(CC1)CC(=O)c1cc(-c3ccc(C(=O)N(C)CCC#N)cc3)ccc1O2 [CBK156518], CN(C)CCNC(=O)c1cncc(-c2ccc(C(=O)N3CCOCC3)cc2)c1 [CBK158619] is higher in viability at 28.5 h, 10 µM: 89% for the first, 95.6% for the second.

Going from O=C(CCC(=O)N1CCC2(CC1)CC(=O)c1ccccc1O2)NCC1CCCO1 (stereo not drawn) [CBK156525] to Cc1onc(-c2ccccc2)c1C(=O)N1CCN(CCN2CCCC2)CC1 [CBK158558], the viability at 28.5 h, 10 µM rises from 86.2% to 98.6%.

First: O=C(COc1ccc(F)cc1)N1CCC2(CCNC2)C1 (stereo not drawn) [CBK156691C]
Second: O=C(C(c1ccccc1)c1ccccc1)N1CCC2(CCNC2)C1 (stereo not drawn) [CBK156729C]
The viability at 28.5 h, 10 µM of the first is higher: 92.5% for the first, 92.3% for the second.

Compared with Cc1nc(S(=O)(=O)Nc2ccc3[nH]ccc3c2)cn1C [CBK156800], O=S(=O)(Nc1ccc2[nH]ccc2c1)c1cccnc1 [CBK156811] is higher in viability at 28.5 h, 10 µM: 68.3% for the first, 71% for the second.

Going from COC(=O)c1ccc2c(c1)C(=O)N(c1ccc(C(=O)OCC(C)C)cc1)C2=O [CBK156802] to CCNC(=O)c1ccc(-c2ccc(C(=O)N(C)C)cc2)nc1 [CBK158361], the viability at 28.5 h, 10 µM falls from 92.1% to 91.7%.

First: COc1ccc(S(=O)(=O)N2CCN(C(=O)c3ccc(C(C)(C)C)cc3)CC2)cc1 [CBK157251]
Second: NS(=O)(=O)c1ccc(CNC(=O)c2cncc(-c3ccc(C(=O)N4CCOCC4)cc3)c2)cc1 [CBK158641]
The viability at 28.5 h, 10 µM of the first is higher: 111% for the first, 100% for the second.

First: CCCCc1ccc(NC(=S)NC(=O)c2ccc(OC)c(OC)c2)cc1 [CBK157691]
Second: COc1ccc(CCN(Cc2ccc(Cl)c(Cl)c2)C(=O)NCCCSC)cc1OC [CBK158758]
The viability at 28.5 h, 10 µM of the first is higher: 100% for the first, 91.1% for the second.

Going from CCN(CC)C(=O)C1CCN(S(=O)(=O)c2ccc(C)cc2)CC1 [CBK157834] to CCOC(=O)C1CCN(C(=O)c2c(-c3ccccc3)noc2C)CC1 [CBK158704], the viability at 28.5 h, 10 µM falls from 98.7% to 86.3%.

First: Cc1ccc(CNC(=O)Cc2ccc(-c3ccc(CN4CCC(C)CC4)cc3)nc2)cc1F [CBK158402]
Second: CC(=O)Nc1ccc(-c2ccc(C(=O)NCCc3ccc(O)cc3)cn2)cc1 [CBK158840]
The viability at 28.5 h, 10 µM of the first is lower: 97.4% for the first, 105% for the second.

Compared with CSCCCNC(=O)c1cc(-c2ccc(C(=O)N3CCOCC3)cc2)cnc1N [CBK158568], O=C(NCc1cccs1)c1cncc(-c2ccc(C(=O)N3CCOCC3)cc2)c1 [CBK158617] is lower in viability at 28.5 h, 10 µM: 95.5% for the first, 87.4% for the second.

First: CN1CCC(N2CCN(C(=O)c3cncc(-c4ccc(C(=O)N5CCOCC5)cc4)c3)CC2)CC1 [CBK158600]
Second: CS(=O)(=O)c1ccc(-c2ccc3c(c2)COC(C2CCN(C(=O)c4ccccc4O)CC2)O3)cc1 (stereo not drawn) [CBK158682]
The viability at 28.5 h, 10 µM of the first is higher: 115% for the first, 85.3% for the second.

Going from CCN(CC)C(=O)CN(CCc1ccc(OC)c(OC)c1)C(=O)NCCCSC [CBK158725] to CCN(CC)C(=O)CN(CCc1ccc(OC)c(OC)c1)C(=O)NCc1c(Cl)cccc1Cl [CBK158743], the viability at 28.5 h, 10 µM falls from 94.8% to 89.9%.

Going from CCN(CC)C(=O)CN(CCc1ccc(OC)c(OC)c1)C(=O)NCCc1c[nH]c2ccccc12 [CBK158741] to COc1ccc(CCN(Cc2ccc(Cl)c(Cl)c2)C(=O)NCc2ccc(C#N)cc2)cc1OC [CBK158771], the viability at 28.5 h, 10 µM rises from 91.1% to 100%.

Compared with CC(C)c1noc(N2CCC(Oc3ccc(-c4ccc(S(C)(=O)=O)cc4)cn3)CC2)n1 [CBK158821], CC(=O)Nc1ccc(-c2ccc(C(=O)NCc3ccc(OC(F)(F)F)cc3)cn2)cc1 [CBK158830] is higher in viability at 28.5 h, 10 µM: 84.6% for the first, 98.6% for the second.
